Test results taken from patent publication US8952024B2, “Herbicidal pyrimidone derivatives” (E I du Pont de Nemours and Company, priority 2009, dated 2015).

Experiments:
Assay type in all cases: in vivo
[1] = system: rice (Oryza sativa); assay: Test B flooded paddy test
Procedure, shortened: (§1)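 Plants were grown to the 2-leaf stage, then pots were flooded to 3 cm above the soil and compounds were applied directly into the paddy water. That depth was held throughout. After 13 to 15 days in a greenhouse, injury was visually rated against controls on a 0–100 scale.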

[2] = system: umbrella sedge (Cyperus difformis); assay: Test B flooded paddy test
Procedure, shortened: as §1

[3] = system: barnyardgrass (Echinochloa crus-galli); assay: Test B flooded paddy test
Procedure, shortened: as §1

[4] = system: ducksalad (Heteranthera limosa); assay: Test B flooded paddy test
Procedure, shortened: as §1

[5] = system: giant foxtail (Setaria faberii); assay: Test A pre-/postemergence plant response
Text: (§2) Seeds of barnyardgrass (Echinochloa crus-galli), large crabgrass (Digitaria sanguinalis), giant foxtail (Setaria faberii), morningglory (Ipomoea spp.), pigweed (Amaranthus retroflexus), velvetleaf (Abutilon theophrasti), wheat (Triticum aestivum) and corn (Zea mays) were planted into a blend of loam soil and sand and treated preemergence with a directed soil spray using test chemicals formulated in a non-phytotoxic solvent mixture which included a surfactant. At the same time these species were also treated with postemergence applications of test compounds formulated in the same manner.
(§3) Plants ranged in height from two to ten cm and were in the one- to two-leaf stage for the postemergence treatment. Treated plants and untreated controls were maintained in a greenhouse for approximately ten days, after which time all treated plants were compared to untreated controls and visually evaluated for injury. Plant response ratings, summarized in Table A, are based on a 0 to 100 scale where 0 is no effect and 100 is complete control. A dash (-) response means no test result.

[6] = system: corn (Zea mays); assay: Test A pre-/postemergence plant response
Text: as §2, §3

[7] = system: wheat (Triticum aestivum); assay: Test A pre-/postemergence plant response
Text: as §2, §3

[8] = system: large crabgrass (Digitaria sanguinalis); assay: Test A pre-/postemergence plant response
Text: as §2, §3

[9] = system: pigweed (Amaranthus retroflexus); assay: Test A pre-/postemergence plant response
Text: as §2, §3

[10] = system: velvetleaf (Abutilon theophrasti); assay: Test A pre-/postemergence plant response
Text: as §2, §3

[11] = system: morningglory (Ipomoea spp.); assay: Test A pre-/postemergence plant response
Text: as §2, §3

[12] = system: barnyardgrass (Echinochloa crus-galli); assay: Test A pre-/postemergence plant response
Text: as §2, §3

[13] = Flood (flooded paddy test), 125 g ai/ha, scale 0 to 100, 0 is no effect, 100 is complete control, 13 to 15 days
[14] = Flood, 31 g ai/ha, scale 0 to 100 (0 no effect, 100 complete control)
[15] = Postemergence, 125 g ai/ha, 0 to 100 scale where 0 is no effect and 100 is complete control
[16] = Postemergence, 500 g ai/ha, visual injury, 0 to 100 scale (0 no effect, 100 complete control), approx. ten days
[17] = Preemergence, 125 g ai/ha, 0 to 100 scale, 0 = no effect, 100 = complete control
[18] = Preemergence, 500 g ai/ha, 0 to 100 scale, 0 = no effect, 100 = complete control

**Q.** Which results are given for CCc1ccc(-n2c(-c3cccc(Cl)c3)ncc(C(=O)C3=C(O)CCCC3=O)c2=O)cc1 [Compound 174]?
**A.** Plant response rating, Rice [1, 13]: 0; Rice plant response rating [1, 14]: 0; Plant response rating, Sedge, Umbrella [2, 13]: 95; Sedge, Umbrella plant response rating [2, 14]: 85; Plant response rating, Barnyardgrass [3, 13]: 0; Barnyardgrass plant response rating [3, 14]: 0; Plant response rating, Ducksalad [4, 13]: 95; Ducksalad plant response rating [4, 14]: 80; Plant response rating, Foxtail, Giant [5, 15]: 20; Foxtail, Giant plant response rating [5, 16]: 60; Plant response rating, Foxtail, Giant [5, 17]: 0; Plant response rating, Foxtail, Giant [5, 18]: 40; Plant response rating, Corn [6, 15]: 10; Corn plant response rating [6, 16]: 20; Plant response rating, Corn [6, 17]: 10; Plant response rating, Corn [6, 18]: 20; Plant response rating, Wheat [7, 15]: 0; Wheat plant response rating [7, 16]: 0; Plant response rating, Wheat [7, 17]: 0; Plant response rating, Wheat [7, 18]: 0; Plant response rating, Crabgrass, Large [8, 15]: 70; Crabgrass, Large plant response rating [8, 16]: 90; Plant response rating, Crabgrass, Large [8, 17]: 20; Plant response rating, Crabgrass, Large [8, 18]: 60; Plant response rating, Pigweed [9, 15]: 100; Pigweed plant response rating [9, 16]: 100; Plant response rating, Pigweed [9, 17]: 30; Plant response rating, Pigweed [9, 18]: 90; Plant response rating, Velvetleaf [10, 15]: 100; Velvetleaf plant response rating [10, 16]: 100; Plant response rating, Velvetleaf [10, 17]: 20; Plant response rating, Velvetleaf [10, 18]: 70; Plant response rating, Morningglory [11, 15]: 30; Morningglory plant response rating [11, 16]: 60; Plant response rating, Morningglory [11, 17]: 0; Plant response rating, Morningglory [11, 18]: 0; Plant response rating, Barnyardgrass [12, 15]: 90; Barnyardgrass plant response rating [12, 16]: 100; Plant response rating, Barnyardgrass [12, 17]: 0; Plant response rating, Barnyardgrass [12, 18]: 40
